Source: patent US12344578B2, “Salt forms of bempedoic acid and methods for using the same” (Esperion Therapeutics, Inc., priority 2019, dated 2025)
Each block holds one compound with its values, some of them ahead of it.

Assay: Thermogravimetric analysis (TGA), weight loss on heating
Format: physicochemical
Procedure: Thermogravimetric analysis (TGA) data for the crystalline form of the compound of formula (V) were collected using a TA Discovery 550 TGA instrument. The TGA instrument was calibrated using a nickel reference standard. Samples of the crystalline form of the compound of formula (V) were placed in open platinum sample pans and heated at a rate of 10° C./minute from about ambient temperature (˜25° C.) to about 315° C.
TGA data were collected using a TA Discovery 550 TGA instrument. The TGA instrument was calibrated using a nickel reference standard. Samples were placed in open platinum sample pans and heated at a rate of 10° C./minute from about ambient temperature (˜25° C.) to about 315° C.

- TGA weight loss (up to 86.9° C.): 2.23%
SMILES: CC(C)(CCCCCC(O)CCCCCC(C)(C)C(=O)[O-])C(=O)[O-].[Ca+2] [Crystalline Form B of the calcium salt]

- TGA weight loss (up to 62.8° C.): Negligible weight loss
SMILES: CC(C)(CCCCCC(O)CCCCCC(C)(C)C(=O)[O-])C(=O)[O-].[Ca+2] [Crystalline Form A of the calcium salt]

- TGA weight loss prior to decomposition (heated at 10° C./minute from ~25° C. to about 315° C.): negligible weight loss
SMILES: CC(C)(CCCCCC(O)CCCCCC(C)(C)C(=O)O)C(=O)O [8-hydroxy-2,2,14,14-tetramethylpentadecanedioic acid]
